Source: patent publication US11427553B2, “Dihydrooxadiazinones” (Bayer Aktiengesellschaft, priority 2017, dated 2022)

Key:
SK-MEL-3 cells = assay: Assay 1 cell proliferation measurement (CTG, 72 h), SK-MEL-3; format: cell-based, human; settings: Homo sapiens, SK-MEL3; Assay 1, 72 h, Cell Titer Glo; read-out: SK-MEL-3 IC50 [nM] (melanoma)
Method: (§1) Cell Proliferation Measurement
(§2) The antiproliferative activity of the compounds of the general formula (I) was examined in vitro in human cancer cells. For this purpose, the appropriate number of cells (Hela: 800; SK-MEL-3: 1000; A549: 800) were plated in 384-well plates with appropriate growth medium ((A549: DMEM/Ham's F12 (Biochrom; #FG 4815 with stabile Glutamine), FCS 10% final (Biochrom; #S 0415); Hela: DMEM/Ham's F12 (Biochrom; #FG 4815 with stabile Glutamine), FCS 10% final (Biochrom; #S 0415); SK-MEL-3: McCoy's 5A (Biochrom; #F 1015), FCS 10% final (Biochrom; #S 0415), L-Alanyl-L-Glutamine final: 2 mM, (Biochrom; #K 0302)) and incubated at 37° C. overnight. After 24 h, cells on one plate (0 h plate) were treated with 30 μl/cavity of CTG solution (Promega Cell Titer Glo (catalogue #G755B and G756B)) and incubated at room temperature for 10 min, and luminescence was measured by means of a VICTOR V (Perkin Elmer), in order to determine cell viability on commencement of treatment. The cells on the test plate were treated with the compounds of the general formula (I) as and incubated at 37° C. for 72 h. The compounds were added to the cells by means of an HP D300 digital dispenser in a 10-step 2.5-fold dilution series generally starting at a maximum final drug concentration of 100 nM. As control, the cells were treated with vehicle (DMSO at 0.3% final concentration). After 72 h, the cells were treated with 30 μl/cavity of CTG solution (Promega Cell Titer Glo (catalogue #G755B and G756B)) and incubated at room temperature for 10 min. and luminescence was measured by means of a VICTOR V (Perkin Elmer), in order to determine cell viability at the end of treatment. The percentage effect on cell growth and the IC50 derived therefrom were determined for each test substance using the values from the 0 h plate […] and the DMSO control […]. The IC50 values were calculated using a 4-parameter fit.

human full length PDE3B = human full length PDE3B (Homo sapiens (Human), UniProt Q13370); assay: Assay 5 PDE3B enzyme inhibition (3H-cAMP SPA); format: biochemical; settings: Sf9 cell extract
Method: (§3) The commercially available 3H-cAMP Scintillation Proximity Assay (SPA, Perkin Elmer) system was used for enzyme inhibition studies. For the determination of the in vitro effect of example compounds on the PDE3B reactions 2 μl of the respective example compound solution in DMSO (serial dilutions) were placed in wells of microtiter plates (Isoplate-96/200W; Perkin Elmer). 50 μl of a dilution of PDE3B cell extract from Sf9 cells overexpressing human full length PDE3B (SB Drug Discovery, UK) in buffer A (50 mM Tris/HCl pH 7.5, 8.3 mM MgCl2, 1.7 mM EDTA, 0.2% BSA) was added. The dilution of the PDE3B cell extract was chosen such that the reaction kinetics was linear and less than 70% of the substrate was consumed (typical dilution 1:6000). The reaction was started by addition of 50 μl (0.025 μCi) of 1:2000 in buffer A w/o BSA diluted substrate [8-3H]adenosine 3′, 5′-cyclic phosphate (1 μCi/μl; Perkin Elmer). After incubation at room temperature for 60 min, the reaction was stopped by addition of 25 μl of a suspension containing 18 mg/ml yttrium scintillation proximity beads (Perkin Elmer) in water. The microtiter plates were sealed and measured in a Microbeta scintillation counter (PerkinElmer Wallac). IC50 values were determined from sigmoidal curves by plotting percentage PDE3B activity vs log compound concentration.

human full length PDE3A = human full length PDE3A (Homo sapiens (Human), UniProt Q14432); assay: Assay 4 PDE3A enzyme inhibition (3H-cAMP SPA); format: biochemical; settings: Sf9 cell extract
Method: Assay 4 Method for PDE3A Enzyme Inhibition
as §3, with “PDE3A” for “PDE3B”, “1:5000).” for “1:6000).”

HeLa cells = assay: Assay 1 cell proliferation measurement (CTG, 72 h), HeLa; format: cell-based, human; settings: Homo sapiens, HeLa; Assay 1, 72 h, Cell Titer Glo; read-out: HeLa IC50 [nM] (Cervical cancer)
Method: as §1, §2

Sequence of human full length PDE3A (Q14432 whole entry): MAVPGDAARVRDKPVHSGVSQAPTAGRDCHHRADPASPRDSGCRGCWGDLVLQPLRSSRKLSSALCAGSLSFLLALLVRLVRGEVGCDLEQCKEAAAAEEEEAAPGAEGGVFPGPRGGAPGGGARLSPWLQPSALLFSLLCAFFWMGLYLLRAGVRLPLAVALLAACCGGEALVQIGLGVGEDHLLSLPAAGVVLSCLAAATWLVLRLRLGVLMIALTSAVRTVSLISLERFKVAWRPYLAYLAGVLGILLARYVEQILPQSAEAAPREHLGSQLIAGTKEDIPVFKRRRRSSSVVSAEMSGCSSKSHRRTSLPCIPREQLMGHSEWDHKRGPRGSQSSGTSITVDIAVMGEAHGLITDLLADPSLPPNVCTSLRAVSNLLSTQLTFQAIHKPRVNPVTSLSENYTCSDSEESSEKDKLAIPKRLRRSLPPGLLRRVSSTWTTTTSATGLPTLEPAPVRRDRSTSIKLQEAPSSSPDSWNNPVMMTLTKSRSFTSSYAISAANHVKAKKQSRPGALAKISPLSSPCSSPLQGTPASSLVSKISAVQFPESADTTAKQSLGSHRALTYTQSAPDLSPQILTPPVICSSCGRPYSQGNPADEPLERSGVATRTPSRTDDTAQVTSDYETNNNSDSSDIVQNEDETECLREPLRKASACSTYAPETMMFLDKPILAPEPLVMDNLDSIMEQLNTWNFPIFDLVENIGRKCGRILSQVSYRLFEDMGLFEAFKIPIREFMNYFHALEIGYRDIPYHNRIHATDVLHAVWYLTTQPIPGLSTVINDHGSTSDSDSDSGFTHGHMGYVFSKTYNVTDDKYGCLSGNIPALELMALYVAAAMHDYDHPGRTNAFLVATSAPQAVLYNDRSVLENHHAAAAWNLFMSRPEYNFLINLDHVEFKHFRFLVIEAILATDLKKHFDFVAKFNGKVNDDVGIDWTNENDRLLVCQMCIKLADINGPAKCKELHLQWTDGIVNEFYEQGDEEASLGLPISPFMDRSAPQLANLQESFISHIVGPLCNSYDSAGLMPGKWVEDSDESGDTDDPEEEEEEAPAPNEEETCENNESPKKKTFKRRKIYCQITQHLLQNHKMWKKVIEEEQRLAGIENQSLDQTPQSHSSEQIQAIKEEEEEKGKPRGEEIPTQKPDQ
Sequence of human full length PDE3B (Q13370 whole entry): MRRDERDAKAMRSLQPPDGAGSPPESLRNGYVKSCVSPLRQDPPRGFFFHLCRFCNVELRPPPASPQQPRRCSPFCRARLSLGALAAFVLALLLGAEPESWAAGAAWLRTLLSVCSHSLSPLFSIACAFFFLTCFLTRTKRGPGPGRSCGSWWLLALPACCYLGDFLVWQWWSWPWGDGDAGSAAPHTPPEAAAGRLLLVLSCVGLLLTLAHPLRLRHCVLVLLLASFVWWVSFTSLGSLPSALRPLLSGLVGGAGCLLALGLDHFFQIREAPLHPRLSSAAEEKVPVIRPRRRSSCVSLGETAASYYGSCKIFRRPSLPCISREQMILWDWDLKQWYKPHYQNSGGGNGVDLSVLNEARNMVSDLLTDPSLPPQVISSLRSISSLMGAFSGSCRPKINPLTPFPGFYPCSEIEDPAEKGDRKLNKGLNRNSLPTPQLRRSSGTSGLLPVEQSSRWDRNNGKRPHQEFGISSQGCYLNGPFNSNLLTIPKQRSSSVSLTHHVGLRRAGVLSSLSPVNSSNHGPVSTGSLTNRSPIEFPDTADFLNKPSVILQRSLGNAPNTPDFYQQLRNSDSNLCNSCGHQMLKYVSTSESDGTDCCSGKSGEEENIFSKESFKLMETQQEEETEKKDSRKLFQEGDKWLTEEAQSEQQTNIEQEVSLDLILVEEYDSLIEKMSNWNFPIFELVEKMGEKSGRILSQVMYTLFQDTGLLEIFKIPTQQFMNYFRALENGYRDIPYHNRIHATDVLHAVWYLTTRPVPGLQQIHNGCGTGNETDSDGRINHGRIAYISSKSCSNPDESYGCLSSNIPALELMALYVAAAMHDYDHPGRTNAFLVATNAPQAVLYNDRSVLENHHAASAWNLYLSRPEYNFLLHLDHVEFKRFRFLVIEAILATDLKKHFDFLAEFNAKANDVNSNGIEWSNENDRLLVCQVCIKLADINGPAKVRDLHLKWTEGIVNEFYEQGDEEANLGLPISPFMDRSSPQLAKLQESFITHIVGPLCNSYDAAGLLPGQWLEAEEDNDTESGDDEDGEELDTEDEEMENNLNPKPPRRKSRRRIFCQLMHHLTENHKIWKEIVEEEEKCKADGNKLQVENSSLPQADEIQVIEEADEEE

| Structure (SMILES) | IC50 (SK-MEL-3 cells) | IC50 (human full length PDE3B) | IC50 (human full length PDE3A) | IC50 (HeLa cells) |
| --- | --- | --- | --- | --- |
| Cc1ccncc1-c1ccc(C2=NNC(=O)O[C@H]2C)cc1C(F)(F)F [Example 182, (6S)-6-Methyl-5-[4-(4-methylpyridin-3-yl)-3-(trifluoromethyl)phenyl]-3,6-dihydro-2H-1,3,4-oxadiazin-2-one] | 54 nM | 260 nM | 220 nM | 39 nM |
| Cc1ccc(-c2ccc(C3=NNC(=O)OC3)cc2C(F)(F)F)nc1 [Example 157, 5-[4-(5-Methylpyridin-2-yl)-3-(trifluoromethyl)phenyl]-3,6-dihydro-2H-1,3,4-oxadiazin-2-one] | 71 nM | > 1000 nM | > 1000 nM | 44 nM |
| COCCCNc1ccc(C2=NNC(=O)OC2)cc1C(F)(F)F [Example 214, 5-{4-[(3-Methoxypropyl)amino]-3-(trifluoromethyl)phenyl}-3,6-dihydro-2H-1,3,4-oxadiazin-2-one] | 2 nM | 73 nM | 59 nM | 1 nM |
| O=C1NN=C(c2ccc(-c3ccc4cn[nH]c4c3)c(C(F)(F)F)c2)CO1 [Example 47, 5-[4-(1H-Indazol-6-yl)-3-(trifluoromethyl)phenyl]-3,6-dihydro-2H-1,3,4-oxadiazin-2-one] | 2 nM | 33 nM | 53 nM | 2 nM |
| C[C@H](O)CNc1ccc(C2=NNC(=O)OC2)cc1C(F)(F)F [Example 218, 5-[4-{[(2S)-2-Hydroxypropyl]amino}-3-(trifluoromethyl)phenyl]-3,6-dihydro-2H-1,3,4-oxadiazin-2-one] | 4 nM | 89 nM | 35 nM | 3 nM |
| Cc1cc(C2=NNC(=O)OC2)ccc1-c1cccnc1 [Example 13, 5-[3-Methyl-4-(pyridin-3-yl)phenyl]-3,6-dihydro-2H-1,3,4-oxadiazin-2-one] | 82 nM |  |  | 27 nM |
| CCc1ccccc1-c1ccc(C2=NNC(=O)O[C@H]2C)cc1C(F)(F)F [Example 186, (6S)-5-[2′-Ethyl-2-(trifluoromethyl)[1,1′-biphenyl]-4-yl]-6-methyl-3,6-dihydro-2H-1,3,4-oxadiazin-2-one] | 71 nM |  |  | 61 nM |
| O=C1NN=C(c2ccc(N3CCCC(O)C3)c(C(F)(F)F)c2)CO1 (racemic) [Example 229, (rac)-5-[4-(3-hydroxypiperidin-1-yl)-3-(trifluoromethyl)phenyl]-3,6-dihydro-2H-1,3,4-oxadiazin-2-one] |  | 67 nM | 82 nM | 1 nM |
| CC(C)(CO)CNc1ccc(C2=NNC(=O)OC2)cc1C(F)(F)F [Example 231, 5-{4-[(3-Hydroxy-2,2-dimethylpropyl)amino]-3-(trifluoromethyl)phenyl}-3,6-dihydro-2H-1,3,4-oxadiazin-2-one] |  | 110 nM | 100 nM | 2 nM |
| O=C1NN=C(c2ccc(N3CC[C@H](O)C3)c(C(F)(F)F)c2)CO1 [Example 234, 5-{4-[(3S)-3-Hydroxypyrrolidin-1-yl]-3-(trifluoromethyl)phenyl}-3,6-dihydro-2H-1,3,4-oxadiazin-2-one] |  | 73 nM | 78 nM | 2 nM |

More lines, now with the values ahead:

| IC50 (SK-MEL-3 cells) | IC50 (human full length PDE3B) | IC50 (human full length PDE3A) | IC50 (HeLa cells) | Structure (SMILES) |
| --- | --- | --- | --- | --- |
| > 100 nM |  |  | > 100 nM | Nc1ncc(-c2ccc(C3=NNC(=O)OC3)cc2F)cn1 [Example 330, 5-[4-(2-aminopyrimidin-5-yl)-3-fluorophenyl]-3,6-dihydro-2H-1,3,4-oxadiazin-2-one] |
|  | 54 nM | 45 nM | 4 nM | Cn1nccc1CNc1ccc(C2=NNC(=O)OC2)cc1C(F)(F)F [Example 236, 5-[4-{[(1-Methyl-1H-pyrazol-5-yl)methyl]amino}-3-(trifluoromethyl)phenyl]-3,6-dihydro-2H-1,3,4-oxadiazin-2-one] |
|  | 120 nM | 120 nM | 2 nM | O=C1NN=C(c2ccc(N3CC[C@H]3CO)c(C(F)(F)F)c2)CO1 [Example 250, 5-{4-[(2S)-2-(Hydroxymethyl)azetidin-1-yl]-3-(trifluoromethyl)phenyl}-3,6-dihydro-2H-1,3,4-oxadiazin-2-one] |
|  | 130 nM | 66 nM | 6 nM | CCOC(C)CNc1ccc(C2=NNC(=O)OC2)cc1C(F)(F)F (racemic) [Example 241, (rac)-5-{4-[(2-Ethoxypropyl)amino]-3-(trifluoromethyl)phenyl}-3,6-dihydro-2H-1,3,4-oxadiazin-2-one] |
|  | 210 nM | 95 nM | 12 nM | C[C@@H](CCO)Nc1ccc(C2=NNC(=O)OC2)cc1C(F)(F)F [Example 246, 5-[4-{[(2S)-4-Hydroxybutan-2-yl]amino}-3-(trifluoromethyl)phenyl]-3,6-dihydro-2H-1,3,4-oxadiazin-2-one] |
|  | 180 nM | 170 nM | 4 nM | COCC(O)CNc1ccc(C2=NNC(=O)OC2)cc1C(F)(F)F (racemic) [Example 235, (rac)-5-{4-[(2-Hydroxy-3-methoxypropyl)amino]-3-(trifluoromethyl)phenyl}-3,6-dihydro-2H-1,3,4-oxadiazin-2-one] |
|  | 140 nM | 61 nM | 6 nM | CC1(C)CC1CNc1ccc(C2=NNC(=O)OC2)cc1C(F)(F)F (racemic) [Example 248, (rac)-5-[4-{[(2,2-Dimethylcyclopropyl)methyl]amino}-3-(trifluoromethyl)phenyl]-3,6-dihydro-2H-1,3,4-oxadiazin-2-one] |
|  | 31 nM | 45 nM | 2 nM | N#CCCCNc1ccc(C2=NNC(=O)OC2)cc1C(F)(F)F [Example 254, 4-[4-(2-Oxo-3,6-dihydro-2H-1,3,4-oxadiazin-5-yl)-2-(trifluoromethyl)anilino]butanenitrile] |
|  | 100 nM | 48 nM | 6 nM | CCOC1CN(c2ccc(C3=NNC(=O)OC3)cc2C(F)(F)F)C1 [Example 243, 5-[4-(3-Ethoxyazetidin-1-yl)-3-(trifluoromethyl)phenyl]-3,6-dihydro-2H-1,3,4-oxadiazin-2-one] |
|  | 180 nM | 65 nM | 10 nM | O=C1CCC(CNc2ccc(C3=NNC(=O)OC3)cc2C(F)(F)F)CN1 (racemic) [Example 247, (rac)-5-[4-{[(6-Oxopiperidin-3-yl)methyl]amino}-3-(trifluoromethyl)phenyl]-3,6-dihydro-2H-1,3,4-oxadiazin-2-one] |
